Measured values reported in US11306066B2, “4H-pyran compounds as insulin-regulated aminopeptidase (IRAP) inhibitors” (Monash University, priority 2015, dated 2022).
Like-named read-outs stand apart in the source and are kept apart here. Blank lines part the entries; values can stand above or below the compound they belong to.

Biological target: T1, recombinant IRAP (Homo sapiens, UniProt Q9UIQ6)
T1 construct: expressed in transfected cells; host or cells: HEK 293T
Test: IRAP enzymatic assay (hydrolysis of Leu-MCA)
Format: biochemical
Conditions: for Ki: calculated from IC50, substrate Leu-MCA; for IC50: substrate Leu-MCA
Procedure: An in vitro enzymatic assay was used to initially assess IRAP inhibitory activity.
Crude membranes were prepared from HEK 293T cells transfected with IRAP or empty vector, then solubilized in buffer consisting of 50 mM Tris-HCl, 1% Triton X-100, pH 7.4 at 4° C. under agitation over 5 h. After solubilization, the membranes were pelleted by centrifugation at 23,100 g for 15 min at 4° C., and the supernatant was reserved as the source of IRAP activity. The enzymatic activities of recombinant IRAP were determined by the hydrolysis of the synthetic substrate Leu-MCA (Sigma-Aldrich, Missouri, USA) monitored by the release of a fluorogenic product, MCA, at excitation and emission wavelengths of 380 and 440 nm, respectively. Assays were performed in 96-well plates; each well contains between 0.2-10 μg solubilized membrane protein, a range of concentration of substrate in a final volume of 100 μL 50 mM Tris-HCl buffer (pH 7.4). Non-specific hydrolysis of the substrate was corrected by subtracting the emission from incubations with membranes transfected with empty vector. Reactions proceeded at 37° C. for 30 min within a thermostatted FLEX station fluorescence microplate reader (Molecular Devices, Sunnyvale, Calif.). The kinetic parameters (Km and V) were determined by non-linear fitting of the Michaelis-Menten equation (GraphPad Prism, GraphPad Software Inc., CA, USA); final concentrations of Leu-MCA of 15.6 μM-1 mM. Inhibitor constants (Ki) for the competitive inhibitors were calculated from the relationship IC50=[…], where IC50 values were determined over a range of inhibitor concentrations (10^−9 to 10^−4 M). Km values of IRAP for Leu-MCA were determined from the kinetic studies. Binding affinities of the compounds to IRAP were examined by monitoring the inhibition of the hydrolysis of Leu-MCA in the presence of increasing concentrations of the compounds (10^−8 to 10^−3 M). All data obtained were from at least three separate experiments performed in duplicate.
The results for some compounds of Formula (I) are set out below in Tables 2-1 to 2-8. The compounds were obtained commercially (Specs, Interbioscreen Ltd and Chembridge Corporation) or prepared according to the procedures outlined above.

T1 sequence (Q9UIQ6 whole entry): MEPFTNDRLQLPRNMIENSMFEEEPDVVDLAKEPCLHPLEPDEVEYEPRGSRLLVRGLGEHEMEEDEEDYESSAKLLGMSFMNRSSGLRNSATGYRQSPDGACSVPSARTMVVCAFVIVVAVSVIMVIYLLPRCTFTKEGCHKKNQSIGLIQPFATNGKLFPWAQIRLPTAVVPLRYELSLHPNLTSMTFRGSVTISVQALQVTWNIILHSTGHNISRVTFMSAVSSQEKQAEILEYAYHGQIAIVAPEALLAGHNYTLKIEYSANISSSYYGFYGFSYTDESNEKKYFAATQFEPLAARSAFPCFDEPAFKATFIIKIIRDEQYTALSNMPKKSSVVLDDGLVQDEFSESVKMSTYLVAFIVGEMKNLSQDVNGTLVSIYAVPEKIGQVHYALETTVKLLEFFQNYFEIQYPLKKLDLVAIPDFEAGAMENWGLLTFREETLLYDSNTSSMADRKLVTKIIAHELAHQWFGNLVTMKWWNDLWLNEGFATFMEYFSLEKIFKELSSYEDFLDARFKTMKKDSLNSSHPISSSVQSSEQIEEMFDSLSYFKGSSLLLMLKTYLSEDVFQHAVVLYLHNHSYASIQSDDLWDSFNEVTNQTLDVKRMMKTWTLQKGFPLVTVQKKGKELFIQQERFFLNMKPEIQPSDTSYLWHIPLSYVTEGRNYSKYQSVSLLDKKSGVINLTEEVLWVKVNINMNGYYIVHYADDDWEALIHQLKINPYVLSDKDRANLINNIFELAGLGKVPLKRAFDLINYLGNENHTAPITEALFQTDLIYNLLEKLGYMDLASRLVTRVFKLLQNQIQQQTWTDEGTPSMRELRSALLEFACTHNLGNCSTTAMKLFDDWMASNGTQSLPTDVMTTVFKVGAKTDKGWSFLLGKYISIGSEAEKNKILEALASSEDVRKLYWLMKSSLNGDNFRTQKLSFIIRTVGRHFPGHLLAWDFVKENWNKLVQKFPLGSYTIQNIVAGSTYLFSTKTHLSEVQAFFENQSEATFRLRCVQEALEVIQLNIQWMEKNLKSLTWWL

SMILES: CCOC(=O)C1=C(C)OC(N)=C(C#N)C1c1ccc(C#N)cc1 (stereo not shown) [Compound 11j]
IC50 (Table 2-1, read-out: IC50): > 100 µM

SMILES: CCOC(=O)C1=C(C)OC(N)=C(C#N)C1c1ccc(-c2ccccn2)cc1 (stereo not shown) [Compound 11p, Ethyl 6-amino-5-cyano-2-methyl-4-(4-(pyridin-2-yl)phenyl)-4H-pyran-3-carboxylate]
IC50 (Table 2-1, read-out: IC50): > 100 µM

SMILES: CCOC(=O)C1=C(C)OC(N)=C(C#N)C1c1ccc2ccccc2n1 (stereo not shown) [Compound 11s, Ethyl 6-amino-5-cyano-2-methyl-4-(quinolin-2-yl)-4H-pyran-3-carboxylate]
IC50 (Table 2-1, read-out: IC50): 3 to 40 µM

SMILES: CCOC(=O)C1=C(C)OC(N)=C(C#N)C1c1ccnc2ccccc12 (stereo not shown) [Compound 11u, Ethyl 6-amino-5-cyano-2-methyl-4-(quinolin-4-yl)-4H-pyran-3-carboxylate]
IC50 (Table 2-1, read-out: IC50): > 100 µM

SMILES: CCOC(=O)C1=C(C)OC(N)=C(C#N)C1c1cc(C)c(OC(C)=O)c(C)c1 (stereo not shown) [Compound 11o, Ethyl 4-(4-acetoxy-3,5-dimethylphenyl)-6-amino-5-cyano-2-methyl-4H-pyran-3-carboxylate]
IC50 (Table 2-1, read-out: IC50): > 100 µM

SMILES: CCOC(=O)C1=C(C)OC(N)=C(C#N)C1c1ccc([N+](=O)[O-])cc1 (stereo not shown) [Compound 11l]
IC50 (Table 2-1, read-out: IC50): > 100 µM

SMILES: CCOC(=O)C1=C(C)OC(N)=C(C#N)C1c1cnc2ccccc2c1 (stereo not shown) [Compound 11t, Ethyl 6-amino-5-cyano-2-methyl-4-(quinolin-3-yl)-4H-pyran-3-carboxylate]
IC50 (Table 2-1, read-out: IC50): > 100 µM

SMILES: CCOC(=O)C1=C(C)OC(N)=C(C#N)C1c1ccc(OC(C)=O)c(C)c1 (stereo not shown) [Compound 11n, Ethyl 4-(4-acetoxy-3-methylphenyl)-6-amino-5-cyano-2-methyl-4H-pyran-3-carboxylate]
IC50 (Table 2-1, read-out: IC50): > 100 µM

SMILES: CCOC(=O)C1=C(C)OC(N)=C(C#N)C1c1cccc(C(=O)O)c1 (stereo not shown) [Compound 11m, 3-(2-Amino-3-cyano-5-(ethoxycarbonyl)-6-methyl-4H-pyran-4-yl)benzoic Acid]
IC50 (Table 2-1, read-out: IC50): > 100 µM

SMILES: CCOC(=O)C1=C(C)OC(N)=C(C#N)C1c1cc(OC)c2c(c1)OCO2 (stereo not shown) [Compound 11h]
Ki (Table 2-1): 37.5 µM
IC50 (Table 2-1, read-out: IC50): 63 µM

SMILES: COc1cc(C2C(C#N)=C(N)Oc3cc(C)oc(=O)c32)cc(Br)c1O (stereo not shown) [Compound 18]
IC50 (Table 2-8, read-out: IC50 μ): 40 µM

SMILES: CCOC(=O)C1=C(C)OC(N)=C(C#N)C1c1cc(Br)c(O)c(OC)c1 (stereo not shown) [Compound 11a]
Ki (Table 2-1): 13.7 µM
IC50 (Table 2-1, read-out: IC50): 23 µM

SMILES: CCOC(=O)C1=C(C)OC(N)=C(C#N)C1c1ccncc1 (stereo not shown) [Compound 11r]
IC50 (Table 2-1, read-out: IC50): > 100 µM

SMILES: CCOC(=O)C1=C(C)OC(N)=C(C#N)C1c1ccc2c(c1)OCO2 (stereo not shown) [Compound 11g]
IC50 (Table 2-1, read-out: IC50): > 50 µM

SMILES: CCOC(=O)C1=C(C)OC(N)=C(C#N)C1c1ccc(OC)c(OC)c1 (stereo not shown) [Compound 11i]
IC50 (Table 2-1, read-out: IC50): > 50 µM

SMILES: CCOC(=O)C1=C(C)OC(N)=C(C#N)C1c1ccc(C(=O)O)cc1 (stereo not shown) [Compound 11k, 4-(2-Amino-3-cyano-5-(ethoxycarbonyl)-6-methyl-4H-pyran-4-yl)benzoic Acid]
Ki (Table 2-1): 18.4 µM
IC50 (Table 2-1, read-out: IC50): 31 µM

SMILES: CCOC(=O)C1=C(C)OC(N)=C(C#N)C1c1cccnc1 (stereo not shown) [Compound 11q]
IC50 (Table 2-1, read-out: IC50): > 50 µM

SMILES: CCOC(=O)C1=C(C)OC(N)=C(C#N)C1c1ccc(O)c(OC)c1 (stereo not shown) [Compound 11b]
Ki (Table 2-1): 13.1 µM
IC50 (Table 2-1, read-out: IC50): 22 µM

SMILES: CC(=O)NC1=C(C#N)C(c2ccc(C(=O)O)cc2)C(C(C)=O)=C(C)O1 (stereo not shown) [Compound 16, 4-(2-Acetamido-5-acetyl-3-cyano-6-methyl-4H-pyran-4-yl)benzoic Acid]
Ki (Table 2-6): 4.2 µM

SMILES: CCOC(=O)C1=C(C)OC(N)=C(C#N)C1c1ccc(O)cc1 (stereo not shown) [Compound 11e]
Ki (Table 2-1): 61.3 µM
IC50 (Table 2-1, read-out: IC50): 103 µM

Further lines, results first:

Ki (Table 2-5): 1.8 µM
IC50 (Table 2-5, read-out: IC50): 2 to 4 µM
SMILES: CC(=O)C1=C(C)OC(N)=C(C#N)C1c1ccc(C(=O)O)cc1 (stereo not shown) [Compound 15a, 4-(3-Acetyl-6-amino-5-cyano-2-methyl-4H-pyran-4-yl)benzoic Acid]

Ki (Table 2-5): 16.7 µM
IC50 (Table 2-5, read-out: IC50): 28 µM
SMILES: COc1cc(C2C(C#N)=C(N)OC(C)=C2C(C)=O)ccc1O (stereo not shown) [Compound 15c]

IC50 (Table 2-5, read-out: IC50): > 100 µM
SMILES: CC(=O)C1=C(C)OC(N)=C(C#N)C1c1ccc2nccnc2c1 (stereo not shown) [Compound 15j, 5-Acetyl-2-amino-6-methyl-4-(quinoxalin-6-yl)-4H-pyran-3-carbonitrile]

IC50 (Table 2-3, read-out: IC50): > 100 µM
SMILES: COC(=O)C1=C(C)OC(N)=C(C#N)C1c1ccc(O)cc1 (stereo not shown) [Compound 13c]

Ki (Table 2-5): 3.9 µM
IC50 (Table 2-5, read-out: IC50): 6 to 7 µM
SMILES: CC(=O)C1=C(C)OC(N)=C(C#N)C1c1cccc(C(=O)O)c1 (stereo not shown) [Compound 15b, 3-(3-Acetyl-6-amino-5-cyano-2-methyl-4H-pyran-4-yl)benzoic Acid]

Ki (Table 2-5): 10.1 µM
IC50 (Table 2-5, read-out: IC50): 17 µM
SMILES: CC(=O)C1=C(C)OC(N)=C(C#N)C1c1ccc2ccccc2n1 (stereo not shown) [Compound 15i, 5-Acetyl-2-amino-6-methyl-4-(quinolin-2-yl)-4H-pyran-3-carbonitrile]

IC50 (Table 2-4, read-out: IC50): 10 to 100 µM
SMILES: COC(=O)c1ccc(C2C(C#N)=C(N)OC(C)=C2C(=O)OCc2ccccc2)cc1 (stereo not shown) [Compound 14c]

Ki (Table 2-3): 8.3 µM
IC50 (Table 2-3, read-out: IC50): 14 µM
SMILES: COC(=O)C1=C(C)OC(N)=C(C#N)C1c1ccc(C(=O)O)cc1 (stereo not shown) [Compound 13b, 4-(2-Amino-3-cyano-5-(methoxycarbonyl)-6-methyl-4H-pyran-4-yl)benzoic Acid]

Ki (Table 2-7): 4.2 µM
IC50 (Table 2-7, read-out: IC50): 7 µM
SMILES: CCOC(=O)C1=C(C)OC(N)=C(C(=O)OCC)C1c1ccc(C(=O)O)cc1 (stereo not shown) [Compound 17a, 4-(2-Amino-3,5-bis(ethoxycarbonyl)-6-methyl-4H-pyran-4-yl)benzoic Acid]

IC50 (Table 2-4, read-out: IC50): > 100 µM
SMILES: CC1=C(C(=O)OCc2ccccc2)C(c2ccc(C#N)cc2)C(C#N)=C(N)O1 (stereo not shown) [Compound 14d, Benzyl 6-amino-5-cyano-4-(4-cyanophenyl)-2-methyl-4H-pyran-3-carboxylate]

Ki (Table 2-4): 3 µM
IC50 (Table 2-4, read-out: IC50): 5 µM
SMILES: CC1=C(C(=O)OCc2ccccc2)C(c2ccc(C(=O)O)cc2)C(C#N)=C(N)O1 (stereo not shown) [Compound 14b, 4-(2-Amino-5-(benzyloxycarbonyl)-3-cyano-6-methyl-4H-pyran-4-yl)benzoic Acid]

Ki (Table 2-4): 16.7 µM
IC50 (Table 2-4, read-out: IC50): 28 µM
SMILES: COc1ccc(C2C(C#N)=C(N)OC(C)=C2C(=O)OCc2ccccc2)cc1OC (stereo not shown) [Compound 14a]

Ki (Table 2-5): 59.5 µM
SMILES: CC(=O)C1=C(C)OC(N)=C(C#N)C1c1ccc(C#N)cc1 (stereo not shown) [Compound 15d]

Ki (Table 2-3): 8.3 µM
IC50 (Table 2-3, read-out: IC50): 14 µM
SMILES: COC(=O)C1=C(C)OC(N)=C(C#N)C1c1ccc(O)c(OC)c1 (stereo not shown) [Compound 13d]

Ki (Table 2-2): 85.1 µM
IC50 (Table 2-2, read-out: IC50): 143 µM
SMILES: CCOC(=O)C1=C(CC)OC(N)=C(C#N)C1c1ccc(O)c(OC)c1 (stereo not shown) [Compound 12a]

Ki (Table 2-2): 67.2 µM
IC50 (Table 2-2, read-out: IC50): 113 µM
SMILES: CCOC(=O)C1=C(CC)OC(N)=C(C#N)C1c1ccc(O)c(OCC)c1 (stereo not shown) [Compound 12c]
